Our source for the IC50 values is patent US7723523B2, “Tetrahydropyridothiophenes” (4SC AG, priority 2004, dated 2010).

Experiment [1] has as its system RKO colon adenocarcinoma cells (RKOp27) arrested by expression of ectopic p27Kip1. The experiment is described as follows: Alamar Blue cell viability assay on RKOp27 cells arrested by Ponasterone A-induced p27Kip1 (cell cycle specific mode of action). It counts as cell-based. Conditions: Homo sapiens, RKOp27, 72 h, cells arrested by p27Kip1 induced with 10 μM Ponasterone A, 72 hours incubation, read-out: IC50 RKO p27 arrested. On the procedure: To determine the cell cycle specific mode of action, subclones of RKO colon adenocarcinoma cells (RKOp27 or RKOp21 as described by Schmidt et al. in Oncogene 19, 2423-2429; 2000) are seeded into 96 well flat bottom plates at a density of 16000 cells per well in a volume of 50 μl per well in DMEM growth medium with 10% FCS containing 10 μM Ponasterone A. 24 hours after seeding 50 μl each of the compound dilutions in DMEM are added into each well of the 96 well plate. Each compound dilution is tested as quadruplicates. Wells containing untreated control cells are filled with 50 μl DMEM containing 1% DMSO. The cells are then incubated with the substances for 72 hours at 37° C. in a humidified atmosphere containing 5% carbon dioxide. To determine the viability of the cells, 10 μl of an Alamar Blue solution (Biosource) are added and the fluorescence is measured at an extinction of 544 nm and an emission of 590 nm. For the calculation of the cell viability the emission value from untreated cells is set as 100% viability and the emission rates of treated cells are set in relation to the values of untreated cells. Viabilities are expressed as % values. Viability is compared of proliferating cells grown in the absence of the inducer Ponasterone A, versus viability of cells arrested by the expression of ectopic p27Kip1 induced by Ponasterone A. The data of this experimental setting are summarized in table A (2nd column).

Experiment [2] concerns RKO (RKOp27) human colon adenocarcinoma cells. The experiment is described as follows: Alamar Blue cell viability assay, anti-proliferative/cytotoxic activity on proliferating RKOp27 cells. It counts as cell-based. The conditions noted are these: absence of Ponasterone A, 72 hours incubation, read-out: IC50 RKO p27 proliferating. Here is the method: The anti-proliferative/cytotoxic activity of the compounds described herein, can be tested on subclones of RKO (RKOp27) human colon adenocarcinoma cells (Schmidt et al., Oncogene 19, 2423-2429; 2000) using the Alamar Blue cell viability assay (described in O'Brien et al. Eur J Biochem 267, 5421-5426, 2000). The compounds are dissolved as 20 mM solutions in dimethylsulfoxide (DMSO) and subsequently diluted in semi-logarithmic steps. DMSO dilutions are further diluted 1:100 into Dulbecco's modified Eagle's medium (DMEM) containing 10% fetal calf serum to a final concentration twice as much as the final concentration in the test. RKO subclones are seeded into 96 well flat bottom plates at a density of 4000 cells per well in a volume of 50 μl per well. 24 hours after seeding 50 μl each of the compound dilutions in DMEM are added into each well of the 96 well plate. Each compound dilution is tested as quadruplicates. Wells containing untreated control cells are filled with 50 μl DMEM containing 1% DMSO. The cells are then incubated with the substances for 72 hours at 37° C. in a humidified atmosphere containing 5% carbon dioxide. To determine the viability of the cells, 10 μl of an Alamar Blue solution (Biosource) are added and the fluorescence is measured at an extinction of 544 nm and an emission of 590 nm. For the calculation of the cell viability the emission value from untreated cells is set as 100% viability and the emission rates of treated cells are set in relation to the values of untreated cells. Viabilities are expressed as % values.
The corresponding IC50 values of the compounds for anti-proliferative/cytotoxic activity are determined from the concentration-effect curves.
Representative IC50 values for anti-proliferation/cytotoxicity determined in the aforementioned assay are described in the table A (1st column), in which the numbers of the compound correspond to the numbers of the examples.

In the case of `CCOC(=O)N1CCc2c(sc(NC(=O)/C=C/c3cccc4c3OCO4)c2C#N)C1` [Example 111, 2-((E)-3-Benzo[1,3]dioxol-4-yl-allanoylamino)-3-cyano-4,7-dihydro-5H-thieno[2,3-c]pyridine-6-carboxylic acid ethyl ester], the IC50 in experiment [1] was at least 100 µM; in experiment [2] it was at most 2 µM.
Consider `CCOc1ccccc1/C=C/C(=O)Nc1sc2c(c1C#N)CCN(C(=O)CCOC)C2` [Example 216, (E)-N-[3-Cyano-6-(3-methoxy-propanoyl)-4,5,6,7-tetrahydro-thieno[2,3-c]pyridin-2-yl]-3-(2-ethoxy-phenyl)-acrylamide], for which the IC50 is at least 100 µM in experiment [1] and at most 2 µM in experiment [2].
Consider `CCSC(=O)N1CCc2c(sc(NC(=O)/C=C/c3ccccc3OC)c2C#N)C1` [Example 50, 3-Cyano-2-[(E)-3-(2-methoxy-phenyl)-allanoylamino]-4,7-dihydro-5H-thieno[2,3-c]pyridine-6-carbothioic acid S-ethyl ester], for which the IC50 in experiment [1] was at least 100 µM; in experiment [2], at most 2 µM.
On to `COCCOC(=O)N1CCc2c(sc(NC(=O)/C=C/c3cccnc3)c2C#N)C1` [Example 167, 3-Cyano-2-((E)-3-pyridin-3-yl-allanoylamino)-4,7-dihydro-5H-thieno[2,3-c]pyridine-6-carboxylic acid 2-methoxy-ethyl ester], for which the IC50 in experiment [1] is at least 100 µM; in experiment [2], at most 2 µM.
On to `CCOC(=O)N1CCc2c(sc(NC(=O)/C=C/c3cc4ccccc4o3)c2C#N)C1` [Example 84, 2-[(E)-3-Benzofuran-2-yl-allanoylamino]-3-cyano-4,7-dihydro-5H-thieno[2,3-c]pyridine-6-carboxylic acid ethyl ester], for which the IC50 in experiment [1] is at least 50 µM; in experiment [2], at most 0.5 µM.
As for `COCCOC(=O)N1CCc2c(sc(NC(=O)/C=C/c3ccccc3OC)c2C#N)C1` [Example 137, 3-Cyano-2-[(E)-3-(2-methoxy-phenyl)-allanoylamino]-4,7-dihydro-5H-thieno[2,3-c]pyridine-6-carboxylic acid 2-methoxy-ethyl ester], the half-inhibitory concentration (IC50) was at least 100 µM in experiment [1] and at most 2 µM in experiment [2].
The corresponding values for `COCCOC(=O)N1CCc2c(sc(NC(=O)/C=C/c3ccccc3Cl)c2C#N)C1` [Example 142, 2-[(E)-3-(2-Chloro-phenyl)-allanoylamino]-3-cyano-4,7-dihydro-5H-thieno[2,3-c]pyridine-6-carboxylic acid 2-methoxy-ethyl ester] are at least 100 µM and at most 2 µM.
`CCOC(=O)COC(=O)N1CCc2c(sc(NC(=O)/C=C/c3cccnc3)c2C#N)C1` [Example 161, 3-Cyano-2-((E)-3-pyridin-3-yl-allanoylamino)-4,7-dihydro-5H-thieno[2,3-c]pyridine-6-carboxylic acid ethoxycarbonylmethyl ester]: the IC50 in experiment [1] is at least 100 µM; in experiment [2], at most 2 µM.
In the same order, the values of `COc1ccccc1/C=C/C(=O)Nc1sc2c(c1C#N)CCN(C(=O)OCc1cccnc1)C2` [Example 140, 3-Cyano-2-[(E)-3-(2-methoxy-phenyl)-allanoylamino]-4,7-dihydro-5H-thieno[2,3-c]pyridine-6-carboxylic acid pyridin-3-ylmethyl ester] are at least 100 µM and at most 2 µM.
In the case of `N#Cc1c(NC(=O)/C=C/c2ccco2)sc2c1CCN(C(=O)Cc1cccnc1)C2` [Example 228, (E)-N-[3-Cyano-6-(2-pyridin-3-yl-ethanoyl)-4,5,6,7-tetrahydro-thieno[2,3-c]pyridin-2-yl]-3-furan-2-yl-acrylamide], the IC50 in experiment [1] is at least 100 µM; in experiment [2], at most 2 µM.
In the same order, the values of `CCOc1ccccc1/C=C/C(=O)Nc1sc2c(c1C#N)CCN(C(=O)COCCOC)C2` [Example 217, (E)-N-{3-Cyano-6-[2-(2-methoxy-ethoxy)-ethanoyl]-4,5,6,7-tetrahydro-thieno[2,3-c]pyridin-2-yl}-3-(2-ethoxy-phenyl)-acrylamide] are at least 100 µM and at most 2 µM.
In the same order, the values of `N#Cc1c(NC(=O)/C=C/c2ccccc2)sc2c1CCN(C(=O)CCCn1ccnc1)C2` [Example 190, (E)-N-[3-Cyano-6-(4-imidazol-1-yl-butanoyl)-4,5,6,7-tetrahydro-thieno[2,3-c]pyridin-2-yl]-3-phenyl-acrylamide] are at least 100 µM and at most 2 µM.
Regarding `N#Cc1c(NC(=O)/C=C/c2ccccc2)sc2c1CCN(C(=O)CO)C2` [Example 187, (E)-N-[3-Cyano-6-(2-hydroxy-ethanoyl)-4,5,6,7-tetrahydro-thieno[2,3-c]pyridin-2-yl]-3-phenyl-acrylamide], the IC50 in experiment [1] is at least 100 µM; in experiment [2], at most 2 µM.
The corresponding values for `CCOC(=O)N1CCc2c(sc(NC(=O)/C=C/c3cccc(C)c3C)c2C#N)C1` [Example 86, 3-Cyano-2-[(E)-3-(2,3-dimethyl-phenyl)-allanoylamino]-4,7-dihydro-5H-thieno[2,3-c]pyridine-6-carboxylic acid ethyl ester] are at least 100 µM and at most 2 µM.
Regarding `CCOc1ccccc1/C=C/C(=O)Nc1sc2c(c1C#N)CCN(C(=O)CCc1ccccc1)C2` [Example 221, (E)-N-[3-Cyano-6-(3-phenyl-propanoyl)-4,5,6,7-tetrahydro-thieno[2,3-c]pyridin-2-yl]-3-(2-ethoxy-phenyl)-acrylamide], the IC50 in experiment [1] is at least 100 µM; in experiment [2], at most 2 µM.
Turning to `N#Cc1c(NC(=O)/C=C/c2cccnc2)sc2c1CCN(C(=O)OC1CCCCC1)C2` [Example 168, 3-Cyano-2-((E)-3-pyridin-3-yl-allanoylamino)-4,7-dihydro-5H-thieno[2,3-c]pyridine-6-carboxylic acid cyclohexyl ester], the IC50 in experiment [1] is at least 50 µM; in experiment [2] it was at most 0.5 µM.
With `CCOC(=O)N1CCc2c(sc(NC(=O)/C=C/c3ccc(OC)cc3F)c2C#N)C1` [Example 70, 3-Cyano-2-[(E)-3-(2-fluoro-4-methoxy-phenyl)-allanoylamino]β4,7-dihydro-5H-thieno[2,3-c]pyridine-6-carboxylic acid ethyl ester], the IC50 in experiment [1] was at least 100 µM; in experiment [2] it was at most 2 µM.
Consider `CCOC(=O)N1CCc2c(sc(NC(=O)/C=C/c3ccc(-c4ccccc4)s3)c2C#N)C1` [Example 85, 3-Cyano-2-[(E)-3-(5-phenyl-thiophen-2-yl)-allanoylamino]-4,7-dihydro-5H-thieno[2,3-c]pyridine-6-carboxylic acid ethyl ester], for which the IC50 was at least 100 µM in experiment [1] and at most 2 µM in experiment [2].
In the same order, the values of `COCCOCC(=O)N1CCc2c(sc(NC(=O)/C=C/c3ccco3)c2C#N)C1` [Example 226, (E)-N-{3-Cyano-6-[2-(2-methoxy-ethoxy)ethanoyl]-4,5,6,7-tetrahydro-thieno[2,3-c]pyridin-2-yl}-3-furan-2-yl-acrylamide] are at least 100 µM and at most 2 µM.
Consider `CCOC(=O)N1CCc2c(sc(NC(=O)/C=C/c3c(F)ccc(F)c3F)c2C#N)C1` [Example 68, 3-Cyano-2-[(E)-3-(2,3,6-trifluoro-phenyl)-allanoylamino]-4,7-dihydro-5H-thieno[2,3-c]pyridine-6-carboxylic acid ethyl ester], for which the IC50 is at least 100 µM in experiment [1] and at most 2 µM in experiment [2].
On to `N#Cc1c(NC(=O)/C=C/c2cccnc2)sc2c1CCN(C(=O)OCCCc1cccnc1)C2` [Example 157, 3-Cyano-2-((E)-3-pyridin-3-yl-allanoylamino)-4,7-dihydro-5H-thieno[2,3-c]pyridine-6-carboxylic acid 3-pyridin-3-yl-propyl ester], for which the values for the IC50 in experiment [1] and in experiment [2] were at least 50 µM and at most 0.5 µM, respectively.
Take `COCC(=O)N1CCc2c(sc(NC(=O)/C=C/c3cccnc3)c2C#N)C1` [Example 194, (E)-N-[3-Cyano-6-(2-methoxy-ethanoyl)-4,5,6,7-tetrahydro-thieno[2,3-c]pyridin-2-yl]-3-pyridin-3-yl-acrylamide]: the IC50 in experiment [1] is at least 100 µM; in experiment [2], at most 2 µM.
